The source of these data is ChEMBL document CHEMBL1140148, “Structure-activity studies on a series of a 2-aminopyrimidine-containing histamine H4 receptor ligands” (J Med Chem, 2008).

For data set [1], the target named is Histamine H4 receptor (Rattus norvegicus) (UniProt Q91ZY1). The note with it: HEK293.
Data set [2] concerns the target T1, Histamine H4 receptor (Homo sapiens, UniProt Q9H3N8). The note with it: HEK293.
The target in data set [3] is T2, Histamine H4 receptor (Rattus norvegicus, UniProt Q91ZY1). Description: (§1) Agonist activity at rat histamine H4 receptor expressed in HEK293 cells coexpressing Gqi5 protein assessed as calcium flux by FLIPR assay. The format is functional, cell-based. In general terms: A change in cytosolic calcium serves as a functional read-out for many receptors and channels.
For data set [4], the target named is Histamine H4 receptor (Rattus norvegicus) (UniProt Q91ZY1). Description: Agonist activity at rat histamine H4 receptor expressed in HEK293 cells coexpressing Gqi5 protein assessed as calcium flux by FLIPR assay relative to histamine. The format is functional, cell-based.
Data set [5] addresses T1, Histamine H4 receptor. Description: Agonist activity at human histamine H4 receptor expressed in HEK293 cells coexpressing Gqi5 protein assessed as calcium flux by FLIPR assay relative to histamine. The format is functional, cell-based.
In data set [6] the target is T1, Histamine H4 receptor. Description: Agonist activity at human histamine H4 receptor expressed in HEK293 cells coexpressing Gqi5 protein assessed as calcium flux by FLIPR assay. The format is functional, cell-based.
The test system of another data set is Brain. Description: Drug level in rat brain assessed as metabolism to 4-(2-amino-6-(piperazin-1-yl)pyrimidin-4-yl)benzonitrile at 30 umol/kg, ip. The note with it: in vivo. The format is ADME, organism-based.
Data set [7] deals with Histamine H4 receptor (Mus musculus, UniProt Q91ZY2). Description: Agonist activity at mouse histamine H4 receptor expressed in HEK293 cells coexpressing Gqi5 protein assessed as calcium flux by FLIPR assay. The format is functional, cell-based.
For data set [8], the target named is T1, Histamine H4 receptor. Description: Displacement of [3H]histamine from human histamine H4 receptor expressed in HEK293 cells. The format is cell-based.
The target in data set [9] is T2, Histamine H4 receptor. Description: Displacement of [3H]histamine from rat histamine H4 receptor expressed in HEK293 cells. The format is cell-based. In general terms: In a radioligand displacement assay an active substance lowers the binding of a labelled ligand.
In data set [10] the target is Histamine H3 receptor (Homo sapiens, UniProt Q9Y5N1). Description: Binding affinity to human histamine H3 receptor.
The target in data set [11] is Histamine H3 receptor (Rattus norvegicus, UniProt Q9QYN8). Description: Binding affinity to rat histamine H3 receptor.
Data set [12] has as its target Histamine H4 receptor (Rattus norvegicus) (UniProt Q91ZY1). The data set is described as §1. The format is functional, cell-based.

Histamine H4 receptor (Rattus norvegicus), sequence (Q91ZY1 whole entry): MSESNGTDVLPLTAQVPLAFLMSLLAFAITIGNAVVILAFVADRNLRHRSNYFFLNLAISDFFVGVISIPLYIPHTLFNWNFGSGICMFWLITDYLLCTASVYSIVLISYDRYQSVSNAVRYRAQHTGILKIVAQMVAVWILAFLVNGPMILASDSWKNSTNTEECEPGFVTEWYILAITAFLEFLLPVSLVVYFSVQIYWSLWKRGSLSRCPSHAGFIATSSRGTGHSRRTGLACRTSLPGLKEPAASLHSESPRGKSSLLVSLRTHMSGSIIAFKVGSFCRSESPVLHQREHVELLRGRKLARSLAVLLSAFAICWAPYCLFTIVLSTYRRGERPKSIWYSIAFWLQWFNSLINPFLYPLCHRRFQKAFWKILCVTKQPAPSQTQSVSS
T2 sequence (Q91ZY1 whole entry): as above
T1 sequence (Q9H3N8 whole entry): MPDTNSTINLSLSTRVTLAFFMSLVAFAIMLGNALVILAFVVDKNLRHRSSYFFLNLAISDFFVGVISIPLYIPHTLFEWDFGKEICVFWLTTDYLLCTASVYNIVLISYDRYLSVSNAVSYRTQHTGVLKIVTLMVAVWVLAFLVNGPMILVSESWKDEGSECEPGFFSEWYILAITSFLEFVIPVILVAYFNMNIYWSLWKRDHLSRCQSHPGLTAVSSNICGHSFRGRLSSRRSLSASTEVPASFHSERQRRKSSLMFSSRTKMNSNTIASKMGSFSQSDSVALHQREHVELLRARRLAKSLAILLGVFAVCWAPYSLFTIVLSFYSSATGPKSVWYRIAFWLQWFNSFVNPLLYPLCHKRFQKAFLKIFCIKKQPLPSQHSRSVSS
Histamine H3 receptor (Rattus norvegicus, UniProt Q9QYN8), sequence (Q9QYN8 whole entry): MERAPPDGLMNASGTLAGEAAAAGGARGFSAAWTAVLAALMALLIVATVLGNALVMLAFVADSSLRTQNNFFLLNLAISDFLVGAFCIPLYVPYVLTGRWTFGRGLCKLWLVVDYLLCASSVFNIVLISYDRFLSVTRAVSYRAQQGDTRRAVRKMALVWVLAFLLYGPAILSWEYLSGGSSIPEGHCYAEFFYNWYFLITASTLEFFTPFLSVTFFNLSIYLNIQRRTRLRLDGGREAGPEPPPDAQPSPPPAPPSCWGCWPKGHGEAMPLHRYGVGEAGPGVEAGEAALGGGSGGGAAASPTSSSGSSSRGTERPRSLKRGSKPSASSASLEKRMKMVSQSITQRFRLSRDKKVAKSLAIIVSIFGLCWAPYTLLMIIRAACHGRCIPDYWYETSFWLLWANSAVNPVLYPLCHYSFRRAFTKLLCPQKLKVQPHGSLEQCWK
Histamine H3 receptor (Homo sapiens, UniProt Q9Y5N1), sequence (Q9Y5N1 whole entry): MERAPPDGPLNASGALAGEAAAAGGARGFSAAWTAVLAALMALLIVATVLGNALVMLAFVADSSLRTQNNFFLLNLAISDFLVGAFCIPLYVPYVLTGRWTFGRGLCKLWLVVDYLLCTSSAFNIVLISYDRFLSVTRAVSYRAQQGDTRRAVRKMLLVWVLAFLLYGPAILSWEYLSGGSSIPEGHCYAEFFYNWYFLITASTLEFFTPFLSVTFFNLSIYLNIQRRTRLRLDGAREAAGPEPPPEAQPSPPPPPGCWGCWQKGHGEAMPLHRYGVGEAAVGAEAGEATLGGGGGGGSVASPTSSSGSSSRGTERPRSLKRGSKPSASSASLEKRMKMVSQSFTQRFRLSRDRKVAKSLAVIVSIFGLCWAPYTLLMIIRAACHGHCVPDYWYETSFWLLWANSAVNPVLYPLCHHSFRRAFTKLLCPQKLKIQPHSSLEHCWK
Histamine H4 receptor (Mus musculus, UniProt Q91ZY2), sequence (Q91ZY2 whole entry): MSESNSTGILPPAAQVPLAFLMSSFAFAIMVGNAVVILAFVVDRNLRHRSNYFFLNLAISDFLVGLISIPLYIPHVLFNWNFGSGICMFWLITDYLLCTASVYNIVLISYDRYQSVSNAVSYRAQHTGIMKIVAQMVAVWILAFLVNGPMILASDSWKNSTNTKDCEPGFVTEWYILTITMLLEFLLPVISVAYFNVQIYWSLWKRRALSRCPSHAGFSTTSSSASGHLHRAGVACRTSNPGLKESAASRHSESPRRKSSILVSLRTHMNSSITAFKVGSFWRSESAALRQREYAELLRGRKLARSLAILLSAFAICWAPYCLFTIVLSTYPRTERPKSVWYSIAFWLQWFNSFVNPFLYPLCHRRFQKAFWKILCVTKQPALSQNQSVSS

For `CN1CCN(c2cc(-c3ccc(-c4ccccc4)cc3)nc(N)n2)CC1`, the pKb amounted to 6.03 in data set [1] and 6.29 on Histamine H4 receptor [2].

`CN1CCN(c2cc(-c3c[nH]cn3)nc(N)n2)CC1`: the EC50 on Histamine H4 receptor [3] was 389 nM; on Histamine H4 receptor [6] it was 16.2 nM. Besides, the Efficacy in data set [4] stood at 77%; on Histamine H4 receptor [5], 41%.

Consider `CN1CCN(c2cc(-n3ccnc3)nc(N)n2)CC1`, for which the EC50 is 7940 nM on Histamine H4 receptor [3] and 2510 nM at Histamine H4 receptor [6]. The Efficacy is 56% in data set [4] and 31% on Histamine H4 receptor [5].

Regarding `CN1CCN(c2cc(N)cc(-c3ccc(C#N)cc3)n2)CC1`, the values for the pKb (in data set [1]; at Histamine H4 receptor [2]) were 5.14 and 5.05, respectively.

Take `CN1CCN(c2cc(C(C)(C)C)nc(Cl)n2)CC1`: the EC50 at Histamine H4 receptor [3] is 8710 nM; on Histamine H4 receptor [6], 4900 nM. The Efficacy came to 75% in [4] and 42% at Histamine H4 receptor [5].

For `CN1CCN(c2cc(C(C)(C)C)nc(N(C)C)n2)CC1`, the EC50 at Histamine H4 receptor [3] was 18200 nM; on Histamine H4 receptor [6], 11500 nM. In addition, the Efficacy in data set [4] was 88%; on Histamine H4 receptor [5], 100%.

Turning to `COc1nc(N2CCN(C)CC2)cc(C(C)(C)C)n1`, the results for the EC50 on Histamine H4 receptor [3] and at Histamine H4 receptor [6] were 4680 nM and 1200 nM, respectively. In addition, the results for the Efficacy (in data set [4]; on Histamine H4 receptor [5]) were 90% and 43%, respectively.

With `N#Cc1ccc(-c2cc(N3CCN(CC4CC4)CC3)nc(N)n2)cc1`, the negative logarithm of the Kb (pKb) was 4.54 in data set [1] and 5.53 at Histamine H4 receptor [2].

As for `COc1ncccc1-c1cc(N2CCN(C)CC2)nc(N)n1`, the results for the EC50 at Histamine H4 receptor [3] and on Histamine H4 receptor [6] were 93.3 nM and 26.9 nM, respectively. For the same compound, the Efficacy in data set [4] was 72%; on Histamine H4 receptor [5] it was 32%.

As to `CN1CCN(c2cc(-c3ccccc3-c3ccccc3)nc(N)n2)CC1`, the results for the pKb (in [1]; at Histamine H4 receptor [2]) were 5.72 and 6.79, respectively.

As for `CN1CCN(c2cc(-c3cccc4ccccc34)nc(N)n2)CC1`, the results for the pKb (in data set [1]; at Histamine H4 receptor [2]) were 7.27 and 7.81, respectively.

Regarding `CN1CCN(c2cc(NCc3ccccc3)nc(N)n2)CC1`, the EC50 is 490 nM on Histamine H4 receptor [3] and 64.6 nM at Histamine H4 receptor [6]. Besides, on Histamine H4 receptor [5], the Efficacy came to 56%.

Regarding `CN1CCN(c2cc(-c3cccc(-c4ccccc4)c3)nc(N)n2)CC1`, the results for the pKb (in [1]; on Histamine H4 receptor [2]) were 6.38 and 6.85, respectively.

As for `N#Cc1ccc(-c2cc(N3CCNCC3)nc(N)n2)cc1`, the Drug uptake with Brain is 610 ng/mL. The figures for the EC50 at Histamine H4 receptor [3] and on Histamine H4 receptor [7] were 245 nM and 102 nM, respectively. In addition, the Efficacy in data set [4] was found to be 67%. In addition, the inhibitory constant (Ki) was 41.7 nM at Histamine H4 receptor [8], 339 nM at Histamine H4 receptor [9], 933 nM on Histamine H3 receptor [10] and 120 nM at Histamine H3 receptor [11]. The pKb on Histamine H4 receptor [2] came out at 8.08.

As to `CN1CCN(c2cc(-n3cnc4ccccc43)nc(N)n2)CC1`, the Efficacy on Histamine H4 receptor [5] amounted to 82%. Further, the EC50 at Histamine H4 receptor [6] is 178 nM. The compound also showed a pKb in [1] of 6.46.

Consider `CN1CCN(c2nc(N)ncc2N)CC1`, for which the EC50 at Histamine H4 receptor [3] is 42.7 nM; on Histamine H4 receptor [6] it was 33.9 nM. The Efficacy in data set [4] amounted to 88%; on Histamine H4 receptor [5], 38%.

On to `CN1CCN(c2cc(N(C)c3ccccc3)nc(N)n2)CC1`, for which the pKb in [1] was 6.1; on Histamine H4 receptor [2], 6.96.

For `CN1CCN(c2cc(-c3ccc(C#N)cc3)cc(N)n2)CC1`, in data set [12], the pKb stood at 5.39. In addition, on Histamine H4 receptor [5], the Efficacy was 56%. Also, the EC50 on Histamine H4 receptor [6] is 2340 nM.

On to `CN1CCN(c2nc(N)nc(-c3ccc(C#N)cc3)c2-c2ccccc2)CC1`, for which the pKb in [1] was 5.29; at Histamine H4 receptor [2], 5.69.

On to `CN1CCN(c2cc(-n3ccccc3=O)nc(N)n2)CC1`, for which the EC50 is 14100 nM at Histamine H4 receptor [3] and 3890 nM at Histamine H4 receptor [6]. Moreover, the Efficacy was found to be 33% in data set [4] and 27% on Histamine H4 receptor [5].

Regarding `CN1CCN(c2cc(N(C)Cc3ccccc3)nc(N)n2)CC1`, the negative logarithm of the Kb (pKb) was 6.47 in data set [1] and 6.77 at Histamine H4 receptor [2].

`CN1CCN(c2cc(-n3cnc(-c4ccccc4)c3)nc(N)n2)CC1`: the pKb stood at 5.74 in data set [1] and 5.68 on Histamine H4 receptor [2].

In the case of `CN1CCN(c2ccnc(N)n2)CC1`, the results for the EC50 on Histamine H4 receptor [3] and on Histamine H4 receptor [6] were 115 nM and 43.7 nM, respectively. In addition, the Efficacy in data set [4] is 87%; on Histamine H4 receptor [5], 42%.

On to `CN1CCN(c2cc(I)nc(N)n2)CC1`, for which the EC50 at Histamine H4 receptor [3] is 2040 nM. Further, the Efficacy in [4] amounted to 67%. For the same compound, the pKb at Histamine H4 receptor [2] amounted to 6.33.

For the compound `CNc1nc(N2CCN(C)CC2)cc(C(C)(C)C)n1`, on Histamine H4 receptor [3], the EC50 was 5130 nM. Further, the Efficacy in data set [4] is 46%. Further, the pKb on Histamine H4 receptor [2] was found to be 6.08.

Turning to `CC1CCN(c2cc(C(C)(C)C)nc(N)n2)CC1`, the EC50 on Histamine H4 receptor [3] is 23400 nM. For the same compound, the Efficacy in data set [4] worked out at 64%. On Histamine H4 receptor [2], this compound displayed a pKb of 5.2.

As a reminder, the pKb is the negative decadic logarithm of the Kb, by convention in mol/L. As usually defined, the EC50 is the concentration at which the effect is half-maximal. Usually Ki stands for a dissociation constant, usually derived from enzyme kinetics or from competition with a known ligand. Read a high Ki as a looser hold on the target.
